# Measurements from ChEMBL document CHEMBL1201862, “PubChem BioAssay data set” (2004).
#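 Briefly, cells in 96-well plates were exposed to five compound concentrations for 48 h, and endpoints were estimated by linear interpolation. The concentration for 50% growth inhibition is given as GI50.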 Active and inactive are the calls of the source. Rule as the data show it: active = GI50 up to about 1.1 µM and inactive = higher.
# What was measured:
# Test in all cases: NCI anticancer screen, dose series, 48 h
# 786-0 = system: 786-0
# A498 = system: A498
# A549 = system: A549
# ACHN = system: ACHN
# BT-549 = system: BT-549
# CAKI-1 = system: CAKI-1
# CCRF-CEM = system: CCRF-CEM
# COLO 205 = system: COLO 205
# DLD-1 = system: DLD-1
# DMS-114 = system: DMS-114
# DMS-273 = system: DMS-273
# DU-145 = system: DU-145
# EKVX = system: EKVX
# HCC 2998 = system: HCC 2998
# HCT-116 = system: HCT-116
# HL-60 = system: HL-60
# HOP-18 = system: HOP-18
# HOP-62 = system: HOP-62
# HOP-92 = system: HOP-92
# HT-29 = system: HT-29
# Hs-578T = system: Hs-578T
# IGROV-1 = system: IGROV-1
# K562 = system: K562
# KM-20L2 = system: KM-20L2
# KM12 = system: KM12
# LOX IMVI = system: LOX IMVI
# LXFL 529 = system: LXFL 529
# M14 = system: M14
# MCF7 = system: MCF7
# MDA-MB-231 = system: MDA-MB-231
# MDA-MB-435 = system: MDA-MB-435
# MDA-N = system: MDA-N
# MOLT-4 = system: MOLT-4
# Malme-3M = system: Malme-3M
# NCI-H226 = system: NCI-H226
# NCI-H23 = system: NCI-H23
# NCI-H460 = system: NCI-H460
# NCI-H522 = system: NCI-H522
# NCI/ADR-RES = system: NCI/ADR-RES
# OVCAR-3 = system: OVCAR-3
# OVCAR-4 = system: OVCAR-4
# OVCAR-5 = system: OVCAR-5
# OVCAR-8 = system: OVCAR-8
# PC-3 = system: PC-3
# RPMI-8226 = system: RPMI-8226
# RXF 393 = system: RXF 393
# SF-268 = system: SF-268
# SF-295 = system: SF-295
# SF-539 = system: SF-539
# SK-MEL-28 = system: SK-MEL-28
# SK-MEL-2 = system: SK-MEL-2
# SK-MEL-5 = system: SK-MEL-5
# SK-OV-3 = system: SK-OV-3
# SN12C = system: SN12C
# SNB-19 = system: SNB-19
# SNB-75 = system: SNB-75
# SNB-78 = system: SNB-78
# SR = system: SR
# SW-620 = system: SW-620
# T47D = system: T47D
# TK-10 = system: TK-10
# U-251 = system: U-251
# UACC-257 = system: UACC-257
# UACC-62 = system: UACC-62
# UO-31 = system: UO-31
# XF498 = system: XF498
# HCT-15 = system: HCT-15
# M19-MEL = system: M19-MEL
# RXF 631 = system: RXF 631
smiles,measurement,setting,value
Cc1cccc(C(C)(C)C)c1NC(=O)C(C#N)C1=C(Cl)C(=O)c2ccccc2C1=O (stereo not given),GI50,786-0,16.2 µM (inactive)
same,GI50,A498,24.9 µM (inactive)
same,GI50,A549,21.7 µM (inactive)
same,GI50,ACHN,14.5 µM (inactive)
same,GI50,BT-549,14.3 µM (inactive)
same,GI50,CAKI-1,16.7 µM (inactive)
same,GI50,CCRF-CEM,0.843 µM (active)
same,GI50,COLO 205,17.5 µM (inactive)
same,GI50,DLD-1,14.4 µM (inactive)
same,GI50,DMS-114,16.6 µM (inactive)
same,GI50,DMS-273,17.8 µM (inactive)
same,GI50,DU-145,22 µM (inactive)
same,GI50,EKVX,12.5 µM (inactive)
same,GI50,HCC 2998,15.7 µM (inactive)
same,GI50,HCT-116,14.1 µM (inactive)
same,GI50,HL-60,2.03 µM (inactive)
same,GI50,HOP-18,12 µM (inactive)
same,GI50,HOP-62,17.7 µM (inactive)
same,GI50,HOP-92,3.93 µM (inactive)
same,GI50,HT-29,20.8 µM (inactive)
same,GI50,Hs-578T,21.1 µM (inactive)
same,GI50,IGROV-1,18.4 µM (inactive)
same,GI50,K562,3.05 µM (inactive)
same,GI50,KM-20L2,20.5 µM (inactive)
same,GI50,KM12,16.3 µM (inactive)
same,GI50,LOX IMVI,16.3 µM (inactive)
same,GI50,LXFL 529,15.5 µM (inactive)
same,GI50,M14,18 µM (inactive)
same,GI50,MCF7,15.8 µM (inactive)
same,GI50,MDA-MB-231,14 µM (inactive)
same,GI50,MDA-MB-435,16.7 µM (inactive)
same,GI50,MDA-N,14.4 µM (inactive)
same,GI50,MOLT-4,2.74 µM (inactive)
same,GI50,Malme-3M,17.2 µM (inactive)
same,GI50,NCI-H226,9.66 µM (inactive)
same,GI50,NCI-H23,15.8 µM (inactive)
same,GI50,NCI-H460,19.2 µM (inactive)
same,GI50,NCI-H522,13.8 µM (inactive)
same,GI50,NCI/ADR-RES,16.6 µM (inactive)
same,GI50,OVCAR-3,15.7 µM (inactive)
same,GI50,OVCAR-4,15.4 µM (inactive)
same,GI50,OVCAR-5,17.9 µM (inactive)
same,GI50,OVCAR-8,18.2 µM (inactive)
same,GI50,PC-3,13.5 µM (inactive)
same,GI50,RPMI-8226,8.83 µM (inactive)
same,GI50,RXF 393,16.9 µM (inactive)
same,GI50,SF-268,17.1 µM (inactive)
same,GI50,SF-295,15.9 µM (inactive)
same,GI50,SF-539,18.1 µM (inactive)
same,GI50,SK-MEL-28,16.9 µM (inactive)
same,GI50,SK-MEL-2,16.1 µM (inactive)
same,GI50,SK-MEL-5,17 µM (inactive)
same,GI50,SK-OV-3,15.8 µM (inactive)
same,GI50,SN12C,17.3 µM (inactive)
same,GI50,SNB-19,18.3 µM (inactive)
same,GI50,SNB-75,13.7 µM (inactive)
same,GI50,SNB-78,14.4 µM (inactive)
same,GI50,SR,3.38 µM (inactive)
same,GI50,SW-620,14.5 µM (inactive)
same,GI50,T47D,9.95 µM (inactive)
same,GI50,TK-10,19.1 µM (inactive)
same,GI50,U-251,16.9 µM (inactive)
same,GI50,UACC-257,15.6 µM (inactive)
same,GI50,UACC-62,18.2 µM (inactive)
same,GI50,UO-31,14.7 µM (inactive)
same,GI50,XF498,16 µM (inactive)
CC1=C2N3C[C@@H](n4c(=O)n(C)c(=O)n43)C23CCC1n1c(=O)n(C)c(=O)n13,GI50,786-0,35.6 µM (inactive)
same,GI50,A498,> 100 µM (inactive)
same,GI50,ACHN,> 100 µM (inactive)
same,GI50,CAKI-1,> 100 µM (inactive)
same,GI50,CCRF-CEM,> 100 µM (inactive)
same,GI50,COLO 205,48 µM (inactive)
same,GI50,DLD-1,69.2 µM (inactive)
same,GI50,DMS-114,30.8 µM (inactive)
same,GI50,DMS-273,38.6 µM (inactive)
same,GI50,EKVX,> 100 µM (inactive)
same,GI50,HCC 2998,7.85 µM (inactive)
same,GI50,HCT-15,24.7 µM
same,GI50,HL-60,> 100 µM (inactive)
same,GI50,HOP-18,> 100 µM (inactive)
same,GI50,HOP-62,> 100 µM (inactive)
same,GI50,HT-29,> 100 µM (inactive)
same,GI50,IGROV-1,> 100 µM (inactive)
same,GI50,K562,61 µM (inactive)
same,GI50,KM-20L2,> 100 µM (inactive)
same,GI50,KM12,> 100 µM (inactive)
same,GI50,LOX IMVI,52.8 µM (inactive)
same,GI50,LXFL 529,85.1 µM (inactive)
same,GI50,M14,> 100 µM (inactive)
same,GI50,M19-MEL,> 100 µM (inactive)
same,GI50,MOLT-4,> 100 µM (inactive)
same,GI50,Malme-3M,> 100 µM (inactive)
same,GI50,NCI-H226,> 100 µM (inactive)
same,GI50,NCI-H23,> 100 µM (inactive)
same,GI50,NCI-H460,> 100 µM (inactive)
same,GI50,OVCAR-4,> 100 µM (inactive)
same,GI50,OVCAR-5,> 100 µM (inactive)
same,GI50,OVCAR-8,> 100 µM (inactive)
same,GI50,RPMI-8226,42.7 µM (inactive)
same,GI50,SF-268,> 100 µM (inactive)
same,GI50,SF-295,> 100 µM (inactive)
same,GI50,SF-539,> 100 µM (inactive)
same,GI50,SK-MEL-28,> 100 µM (inactive)
same,GI50,SK-MEL-5,> 100 µM (inactive)
same,GI50,SN12C,> 100 µM (inactive)
same,GI50,SNB-19,> 100 µM (inactive)
same,GI50,SNB-75,> 100 µM (inactive)
same,GI50,SNB-78,> 100 µM (inactive)
same,GI50,SW-620,21.9 µM (inactive)
same,GI50,TK-10,> 100 µM (inactive)
same,GI50,UACC-257,> 100 µM (inactive)
same,GI50,UACC-62,> 100 µM (inactive)
same,GI50,UO-31,> 100 µM (inactive)
same,GI50,XF498,> 100 µM (inactive)
COc1cc2c(c(OC)c1OC)-c1ccc(OC)c(=O)cc1[C@@H](NC(C)=O)CC2 [COLCHICINE],GI50,DLD-1,0.0625 µM (active)
same,GI50,DU-145,0.659 µM (active)
same,GI50,EKVX,49 µM (inactive)
same,GI50,HCT-116,0.0168 µM (active)
same,GI50,HL-60,< 0.0625 µM (active)
same,GI50,HOP-18,> 68.9 µM (inactive)
same,GI50,K562,0.0135 µM (active)
same,GI50,KM-20L2,< 0.0625 µM (active)
same,GI50,MCF7,0.0625 µM (active)
same,GI50,MDA-MB-435,< 0.01 µM (active)
same,GI50,MOLT-4,0.0237 µM (active)
same,GI50,NCI-H522,0.0119 µM (active)
same,GI50,NCI/ADR-RES,0.845 µM (active)
same,GI50,OVCAR-4,12.9 µM (inactive)
same,GI50,OVCAR-5,7.18 µM (inactive)
same,GI50,RXF 631,0.0363 µM (active)
same,GI50,T47D,> 78.3 µM (inactive)
same,GI50,TK-10,23.7 µM (inactive)
same,GI50,UO-31,0.56 µM (active)
COc1ccc(/C=C\c2cc(OC)c(OC)c(OC)c2)c(O)c1O [COMBRETASTATIN A-1],GI50,786-0,0.69 µM (active)
same,GI50,A549,0.178 µM (active)
same,GI50,ACHN,0.203 µM (active)
same,GI50,BT-549,< 0.0223 µM (active)
same,GI50,CAKI-1,0.238 µM (active)
same,GI50,CCRF-CEM,0.0682 µM (active)
same,GI50,COLO 205,6.65 µM (inactive)
same,GI50,DLD-1,0.123 µM (active)
same,GI50,DMS-114,0.104 µM (active)
same,GI50,DMS-273,0.05 µM (active)
same,GI50,DU-145,0.0127 µM (active)
same,GI50,EKVX,1.99 µM (inactive)
same,GI50,HCC 2998,0.166 µM (active)
same,GI50,HL-60,0.0698 µM (active)
same,GI50,HOP-18,> 26.4 µM (inactive)
same,GI50,HOP-62,0.0893 µM (active)
same,GI50,HOP-92,0.112 µM (active)
same,GI50,HT-29,7.03 µM (inactive)
same,GI50,Hs-578T,< 0.01 µM (active)
same,GI50,IGROV-1,1.57 µM (inactive)
same,GI50,K562,0.05 µM (active)
same,GI50,KM-20L2,8.93 µM (inactive)
same,GI50,KM12,0.0658 µM (active)
same,GI50,LOX IMVI,0.119 µM (active)
same,GI50,LXFL 529,0.611 µM (active)
same,GI50,M14,0.0953 µM (active)
same,GI50,M19-MEL,0.33 µM (active)
same,GI50,MCF7,< 0.01 µM (active)
same,GI50,MDA-MB-231,0.0148 µM (active)
same,GI50,MDA-MB-435,< 0.01 µM (active)
same,GI50,MDA-N,< 0.01 µM (active)
same,GI50,MOLT-4,0.0785 µM (active)
same,GI50,Malme-3M,0.678 µM (active)
same,GI50,NCI-H460,0.0463 µM (active)
same,GI50,NCI-H522,0.0942 µM (active)
same,GI50,OVCAR-4,2.2 µM (inactive)
same,GI50,OVCAR-5,4.37 µM (inactive)
same,GI50,OVCAR-8,0.0881 µM (active)
same,GI50,PC-3,< 0.0103 µM (active)
same,GI50,RPMI-8226,0.0757 µM (active)
same,GI50,SF-268,0.0665 µM (active)
same,GI50,SF-295,0.05 µM (active)
same,GI50,SK-MEL-28,5.41 µM (inactive)
same,GI50,SK-MEL-2,0.0451 µM (active)
same,GI50,SK-MEL-5,0.05 µM (active)
same,GI50,SN12C,0.256 µM (active)
same,GI50,SNB-75,1.31 µM (inactive)
same,GI50,SNB-78,0.0953 µM (active)
same,GI50,SR,2.07 µM (inactive)
same,GI50,SW-620,0.0643 µM (active)
same,GI50,T47D,> 49.9 µM (inactive)
same,GI50,TK-10,2.92 µM (inactive)
same,GI50,U-251,0.0759 µM (active)
same,GI50,UACC-257,0.0582 µM (active)
same,GI50,UACC-62,0.0394 µM (active)
same,GI50,UO-31,0.91 µM (active)
same,GI50,XF498,0.0551 µM (active)
